Laboratory results as given in a melting point compilation (Tetko et al.; mined from patent text by program, amines drawn as free bases though some values may be those of a salt).

melting point [°C]	Structure (SMILES)
191 to 193	COCCCNC(=O)c1cnn(C)c1C(=O)Nc1ccn2nc(-c3ccccc3)nc2c1
154 to 156	CCCc1c(OC(C(=O)O)c2ccc(OC)cc2)ccc(C(C)=O)c1O (centres undefined)
154 to 155	CC(C)NC(=N)NC(=N)NOCCCOc1ccc(OC(F)(F)F)cc1
184 to 186	CS(=O)Cc1cccc(-c2nc(=O)c3ccccc3s2)n1 (centres undefined)
168 to 170	COc1cccc(S(=O)(=O)N2CCc3cc(O)c(OC)cc3C2)c1
58	COC(=O)C(Oc1ccc(Cl)c(C(F)(F)F)c1)c1ccc(Cl)cc1 (centres undefined)
130 to 132	CC(C)(OCc1cc2cc(Cl)ccc2n1S(=O)(=O)c1ccc2c(c1)CCO2)C(=O)O
62 to 63	CC(C)(C)OC(=O)NCc1ccsc1CC(=O)O
163 to 165	COc1ccccc1N1CCN(CC(O)COc2cc(C)c(O)c(C)c2C)CC1 (centres undefined)
81 to 83	CCCCN1CCc2ccccc2C1CNC(=O)c1cc(OC)c(OC)c(OC)c1 (centres undefined)
205 to 207	COc1ccc(C(=O)n2c3c(c4ccccc42)CC(C(=O)O)(C(=O)O)CC3)cc1
148 to 150	COc1ccc2c(cccc2[C@H]2CO[C@H](CCCNC(=O)OCC(N)=O)OC2)c1
204 to 208	COC(=O)N1Cc2nc(C(=O)O)cn2-c2ccccc21
207 to 208	O=c1nc(-c2cccc(CN3CCC(c4ccccc4)CC3)n2)sc2ccccc12
155 to 158	COc1ccc(-c2cc(C)nn2-c2ccc([N+](=O)[O-])cc2)cc1
81 to 83	CC(=O)C(C(=O)N(CCN(C)C)c1ccccc1)=C(N)c1ccccc1
92 to 94	COc1ccc2c(c1)c(CCON)c(C)n2Cc1ccc(Cl)cc1
267	COc1ccc(CC#Cc2ccc3c(c2)c(=O)n(Cc2ccccc2)c2nncn32)cc1
210	CCn1c(=O)ccn(-c2ccc(N3CCN(c4ccc(OC)cc4)CC3)cc2)c1=O
110 to 112	COC(=O)c1ccc(CN(C(C)C)S(=O)(=O)c2ccc(Cl)cc2)cc1
252	COc1cccc2c1[nH]c1c(C(=O)O)cccc12
166 to 167	Cc1c(NC(=O)c2ccc(OC[C@@H]3CCCO3)cc2)ccc2c1cc(CNCC1CCOCC1)n2C

melting point [°C]	Structure (SMILES)
115 to 118	O=C(NCCCC(CCCNC(=O)c1ccccc1)OC(F)(F)F)c1ccccc1
156 to 157	Cc1cccc(CCOc2ccc(CC3SC(=O)NC3=O)cc2)n1 (centres undefined)
132 to 133	CC(CN(O)C(N)=O)OCc1cc2ccccc2s1 (centres undefined)
163	CCCNNC(=O)c1cnc(N(CC)Cc2cc(Br)ccc2OCc2ccccc2)s1
158 to 159	CCCOCCOc1ccc(-c2ccc3c(c2)C=C(C(=O)Nc2ccc(CN(C)C4CCOCC4)cc2)CCS3(=O)=O)c(C)c1C
157 to 159	CCC(=O)O[C@@H]1OCC[C@@H]1NC(=O)[C@@H](NS(=O)(=O)c1cccc2ccccc12)[C@@H](C)CC
164 to 166	CC(C)(C)OC(=O)Cc1n[nH]c(=O)c2ccccc12
250	Oc1ccc(Oc2cnc3ccccc3c2)cc1
240 to 245	O=C(NC[C@H]1CN(c2ccc3c(c2)CCCc2cnoc2-3)C(=O)O1)c1ccccc1
123	CCOC(=O)Nc1ccc2c(c1C=O)OCO2
160	CN(C(=O)C(F)(F)F)c1ccc(C2=NC[C@@H](OC(=O)Nc3ccccc3)[C@H](c3ccccc3)O2)cc1 (racemic)
> 300	NC(=O)c1c[nH]c2c1ccc1c3ccccc3[nH]c12
185 to 186	O=C(O)C1CCc2c(c3ccccc3n2C(=O)c2cccc(Br)c2)C1 (centres undefined)
231 to 233	NC(=O)NN=Cc1ccc(Oc2cc(Cl)ccn2)cc1
174	Nc1cc(Cl)cnc1Oc1ccc(O)cc1
90 to 100	CCCCCCCCCCNC(=O)C=C(c1ccccc1)c1ccc(N)cc1
71 to 73	COc1cc(C(O)CCCc2ccccc2)ccc1OCc1ccccc1 (centres undefined)
150 to 151	CCOC(=O)C1=C(C)NC(=S)N(C(=O)OC)C1c1cccc([N+](=O)[O-])c1 (centres undefined)
153 to 155	Cc1cccc(C)c1NCCCC(=O)N(C(=O)c1ccc(Cl)cc1)[C@@H](Cc1ccccc1)C(=O)O
210	Cc1cccc(NC(=O)NCC(=O)N(CC(=O)Nc2ccc3c(c2)CCC3)c2ccccc2)c1
167 to 168	CN1C(=O)C(NC(=O)CCc2ccccc2)N=C(N(C)C2CCCCC2)c2ccccc21 (centres undefined)

Second part, the compound before the results:

Structure (SMILES)	melting point [°C]
CCOC(C)=NNc1ccc([N+](=O)[O-])cc1	102
O=C1C(=O)c2ccccc2C2=C1SCC1(CCCNC1)O2 (centres undefined)	128 to 134
Cn1c(C(F)(F)F)cc(=O)n(-c2cc(Oc3ccccc3OCC(=O)OC(C)(C)C)c(Cl)cc2F)c1=O	55.6
CC1C(=O)Oc2cc(N3CCCC3)ccc21 (centres undefined)	101 to 103
CCCCC(Sc1cc(C(C)(C)C)c(O)c(C(C)(C)C)c1)C(=O)O (centres undefined)	140 to 142
Cc1nc2cc(F)ccc2c(=O)o1	159 to 160
CCOC12N=C(c3cccnc3)SC1Cc1cc(Cl)ccc12 (centres undefined)	89 to 90
CC(C)=CCc1c(C)c(C)c(O)c(C)c1C	105 to 106
CN(CCO)C(=O)Cc1ccccc1Cl	77
CC(=O)/C=C/c1ncn2c1CN(C)C(=O)c1c(Cl)cccc1-2	235 to 237
CCOC(=O)c1cn(CC)c2cc(N3CCN(C)CC3)ncc2c1=O	176 to 177
CCCNC(=O)C(=O)CCC(=O)O	79 to 81
Cc1ccc(C(O)CCN(C)C)s1 (centres undefined)	66.5 to 68
O=C1c2ccccc2-c2c1c1ccccc1c(=O)n2CCCCCNS(=O)(=O)c1ccccc1	194 to 195
O=S(c1ccc(C=Cc2nc(CCl)co2)cc1)C(F)(F)F (centres undefined)	102 to 104
O=C(O)Cc1ccc(-c2ccc(F)cc2F)c(Cl)c1	114 to 116
COc1ccc(-n2ccnc2C(c2cc(F)ccc2F)S(=O)(=O)c2ccc(Cl)cc2)cc1 (centres undefined)	150 to 151
Nc1c(N=O)c(=O)n(CC2CCCC2)c(=O)n1CC1CCCC1	254 to 255
O=C(Nc1cc(Cl)cc(Cl)c1)C1=C(O)N2CCCN=C2S1	270
CC(=O)O[C@H]1C[C@@H](n2cc(C)c(=O)[nH]c2=O)[C@H](O)[C@@H]1O (racemic)	58 to 61
Cc1nc2n(c1C)CCCC2=O	178

Structure (SMILES)	melting point [°C]
COc1nc(=O)n(-c2ccc(Cl)cc2C)c(=O)[nH]1	193 to 195
COCc1cc(N2CCOCC2)ncn1	56
CCC(CC)Nc1c(C)c(C)nc2c1c(C)nn2-c1c(C)cc(C)cc1C	201 to 205
CCOc1ccc2c(c1C=NO)OCO2	161 to 164
NC(=O)c1c(N)cccc1N1CCCC1	144 to 146
Cc1ccc(C[C@H](NC(=O)[C@@H](NC(=O)OCc2ccccn2)C(C)C)[C@H](O)[C@H](Cc2ccccc2)NC(=O)[C@@H](NC(=O)OCc2ccccn2)C(C)C)cc1	195 to 198
CC(Cc1cccc(S(N)(=O)=O)c1)=NO	154 to 157
NC(=O)c1cn(C(CO)c2ccccc2)cn1 (centres undefined)	147 to 149
Cc1cc(-c2cc(C(F)(F)F)nn2-c2ccc(S(C)(=O)=O)cc2)ccc1-c1ccco1	174 to 176
Oc1ccc(Oc2ccc(OC(F)(F)F)cc2)cc1	44 to 46
CCCCCCCCc1ccc(CCC(CO)(CO)[N+](=O)[O-])cc1	80 to 82
ClCCCOc1ccc(-n2cncn2)cc1	81 to 82
OCCCc1cnoc1-c1ccc(C(F)(F)F)cc1	85 to 86
NS(=O)(=O)c1ccc2c(c1)C(O)CCC2 (centres undefined)	137 to 138
Cc1cccc2c(=O)c3cccc(-c4ccccc4)c3oc12	140 to 141
COc1cc(CO)nnc1OC	151 to 153
CCOC(=O)C1=Cc2cc(Cl)cc(C#CCCCCl)c2OC1C(F)(F)F (centres undefined)	84.8 to 85.9
CC(C)C(=O)c1cc2ccncc2[nH]1	224 to 228
CC(=O)c1ccc(NC(=O)Nc2cc(C(C)=O)cc(C(C)=O)c2)cc1	251 to 252
CN1CCN(C2NC(=O)c3ccccc32)CC1 (centres undefined)	168 to 170
CCSc1cn(C)cc(-c2cc(C(F)(F)F)ccc2Cl)c1=O	127 to 129

Structure (SMILES)	melting point [°C]
COc1ccccc1-c1ccc2cnc(Nc3ccc(=O)[nH]c3)nn12	205 to 207
CCOC(=O)c1cn(C2CC2)c2nc3c(F)c(F)c(F)cc3cc2c1=O	260
CCOC(=O)OCC1OC(n2cc(C=CBr)c(=O)[nH]c2=O)CC1Cl (centres undefined)	181
COc1nc(OC)nc(N(C)C(=O)NS(=O)(=O)c2ccccc2C(F)F)n1	164 to 170
O=Cc1ccc(OC2CCN(c3ccccn3)CC2)cc1	114 to 116
CNC(=O)[C@H]1CN(c2ccc3c(c2)sc(=O)n3C)C(=O)O1	264 to 267
CCOC(=O)N1CCN(c2nc(NC(C)=O)ccc2[N+](=O)[O-])CC1	168 to 169
CC1(C)CC(=O)c2c(ncc3[nH]c4cc(F)ccc4c23)C1	271 to 273
Cc1cc2c(c(C)c1O)CCC(C)(C#N)O2 (centres undefined)	135
Cc1ncnc(-c2cc([N+](=O)[O-])c(C#N)cc2F)c1Cl	123 to 125
O=C(O)c1ccc2ccc(S(=O)(=O)N(Cc3ccccc3)Cc3ccccc3)cc2c1	189 to 190
N#Cc1cccn(-c2cccnc2Cl)c1=O	145
CN1CCN=C1N1CCNCC1	115 to 125
CCN1CCN(c2cccc3c2CC(NC(=O)c2ccc(N4CCOCC4)cc2)CC3)CC1 (centres undefined)	204 to 206
CCCCCCCCN=C=O	60 to 62
O=C(O)Cn1c(=O)c(=O)[nH]c2ccc([N+](=O)[O-])cc21	305 to 306
CN[C@H]1CCN(c2c(F)cc3c(=O)n(NC)c(=O)n(C4CC4)c3c2Cl)C1	77 to 79
Cc1cc(-n2nc(C(F)(F)F)cc2-c2ccc(S(C)(=O)=O)cc2)ccc1F	134 to 136
Cn1ccc2cc(N3Cc4ccc(O)cc4C3=O)ccc21	230 to 235
